Source: PMC10527105, “Chirality Matters: Fine-Tuning of Novel Monoamine Reuptake Inhibitors Selectivity through Manipulation of Stereochemistry” (Biomolecules, 2023)
Like-named read-outs stand apart in the source and are kept apart here.

Columns and labels:
Format in all cases: cell-based
[1] = target: T1, human dopamine transporter/SLC6A3 (DAT) (Homo sapiens, UniProt Q01959); assay: Cellular uptake experiments: [3H]-dopamine reuptake inhibition in transporter-expressing HEK293 cells; conditions: for IC50: cells stably expressing DAT, [3H]-dopamine 1 µM, screening cut-off 50 µM; for activity on DAT (reuptake inhibition), in words: at 50 µM
T1 construct: expressed in transfected cells; host or cells: HEK293
Description: (§1) Cell culture. Human embryonic kidney (HEK) 293 or SK-N-MC (human neuroblastoma) cells were grown in minimum essential medium with Earle’s salts and L-glutamine, 10% heat-inactivated fetal bovine serum, and 50 mg/L gentamicin. Cells were grown in 100- or 60-mm diameter tissue culture dishes (polystyrene, Falcon) at 37 °C under an atmosphere of 5% CO2/95% air. The human dopamine transporter/SLC6A3 (DAT), noradrenaline transporter/SLC6A2 (NET), or human serotonin transporter/SLC6A4 (SERT) cDNA was stably expressed using methods as described previously.
(§2) Cellular uptake experiments. The transporter-expressing HEK293 cells were seeded in poly-D-lysine-coated 24-well plates (1 × 10^5 cells/well) and, one day later, each well was washed with 0.5 mL uptake buffer and incubated with 0.5 mL buffer containing various concentrations of the drugs. Uptake was started by the addition of [^3H]-dopamine, [^3H]-noradrenaline, or [^3H]-serotonin at a final concentration of 1 µM (specific activity 0.14 Ci/mmol) after 5 min of preincubation. After incubation for 2.5 min (SERT-cells: 5 min) at 25 °C, it was stopped by aspirating the uptake buffer and washing each well twice with 1 mL ice-cold buffer. Nonspecific uptake was determined in the presence of 10 µM mazindol (DAT- and NET-cells) or 10 µM clomipramine (SERT-cells). The radioactivity remaining in each well was determined by incubating with 0.4 mL 1% sodium dodecyl sulphate and transferring this solution into scintillation vials containing 3 mL of scintillation cocktail (Ultima Gold MV, Packard, Dovners Grove, IL, USA). The uptake buffer consisted of (mmol/L): 4 Tris–HCl; 6.25 4-(2-hydroxyethyl)-1-piperazineethanesulfonic acid (HEPES); 120 NaCl; 5 KCl; 1.2 CaCl2; 1.2 MgSO4; 5.6 D-glucose; 0.5 ascorbic acid; pH 7.1.

[2] = target: T2, noradrenaline transporter/SLC6A2 (NET) (Homo sapiens, UniProt P23975); assay: Cellular uptake experiments: [3H]-noradrenaline reuptake inhibition in transporter-expressing HEK293 cells; conditions: for activity on NET (reuptake inhibition), in words: at 50 µM / tested concentration range
T2 construct: expressed in transfected cells; host or cells: HEK293
Description: as §1, §2

[3] = target: T3, human serotonin transporter/SLC6A4 (SERT) (Homo sapiens, UniProt P31645); assay: Cellular uptake experiments: [3H]-serotonin reuptake inhibition in transporter-expressing HEK293 cells
T3 construct: expressed in transfected cells; host or cells: HEK293
Description: as §1, §2

[4] = Reuptake Inhibition (IC50 ± SE, µM) DAT
[5] = Reuptake Inhibition (IC50 ± SE, µM) NET, cells stably expressing NET, [3H]-noradrenaline 1 µM, screening cut-off 50 µM
[6] = Reuptake Inhibition (IC50 ± SE, µM) SERT, cells stably expressing SERT; [3H]-serotonin 1 µM; screening cut-off 50 µM
[7] = read-out: Reuptake Inhibition (IC50 ± SE, µM) DAT
[8] = cells stably expressing NET, [3H]-noradrenaline 1 µM, screening cut-off 50 µM, read-out: Reuptake Inhibition (IC50 ± SE, µM) NET
[9] = cells stably expressing SERT; [3H]-serotonin 1 µM; screening cut-off 50 µM; read-out: Reuptake Inhibition (IC50 ± SE, µM) SERT
[10] = read-out: Reuptake Inhibition (IC50 ± SE, µM) NET, cells stably expressing NET, [3H]-noradrenaline 1 µM, screening cut-off 50 µM
[11] = read-out: Reuptake Inhibition (IC50 ± SE, µM) SERT; cells stably expressing SERT; [3H]-serotonin 1 µM; screening cut-off 50 µM
[12] = at 50 µM / tested concentration range

T2 sequence (P23975 whole entry): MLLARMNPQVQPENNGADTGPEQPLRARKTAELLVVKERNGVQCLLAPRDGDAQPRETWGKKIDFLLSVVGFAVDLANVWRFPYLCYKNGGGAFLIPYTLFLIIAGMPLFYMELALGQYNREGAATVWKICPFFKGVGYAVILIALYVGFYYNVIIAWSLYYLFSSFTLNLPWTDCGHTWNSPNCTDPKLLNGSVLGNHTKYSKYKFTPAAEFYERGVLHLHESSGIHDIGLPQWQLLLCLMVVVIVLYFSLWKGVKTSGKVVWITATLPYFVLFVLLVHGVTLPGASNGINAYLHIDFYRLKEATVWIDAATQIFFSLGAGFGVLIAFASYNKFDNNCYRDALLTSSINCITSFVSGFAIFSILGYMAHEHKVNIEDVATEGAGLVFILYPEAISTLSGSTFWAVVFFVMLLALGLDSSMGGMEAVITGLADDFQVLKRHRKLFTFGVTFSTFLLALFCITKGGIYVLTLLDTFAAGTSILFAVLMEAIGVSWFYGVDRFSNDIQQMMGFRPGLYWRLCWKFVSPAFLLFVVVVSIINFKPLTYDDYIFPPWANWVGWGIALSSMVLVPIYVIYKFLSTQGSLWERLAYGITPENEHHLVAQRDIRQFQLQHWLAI
T3 sequence (P31645 whole entry): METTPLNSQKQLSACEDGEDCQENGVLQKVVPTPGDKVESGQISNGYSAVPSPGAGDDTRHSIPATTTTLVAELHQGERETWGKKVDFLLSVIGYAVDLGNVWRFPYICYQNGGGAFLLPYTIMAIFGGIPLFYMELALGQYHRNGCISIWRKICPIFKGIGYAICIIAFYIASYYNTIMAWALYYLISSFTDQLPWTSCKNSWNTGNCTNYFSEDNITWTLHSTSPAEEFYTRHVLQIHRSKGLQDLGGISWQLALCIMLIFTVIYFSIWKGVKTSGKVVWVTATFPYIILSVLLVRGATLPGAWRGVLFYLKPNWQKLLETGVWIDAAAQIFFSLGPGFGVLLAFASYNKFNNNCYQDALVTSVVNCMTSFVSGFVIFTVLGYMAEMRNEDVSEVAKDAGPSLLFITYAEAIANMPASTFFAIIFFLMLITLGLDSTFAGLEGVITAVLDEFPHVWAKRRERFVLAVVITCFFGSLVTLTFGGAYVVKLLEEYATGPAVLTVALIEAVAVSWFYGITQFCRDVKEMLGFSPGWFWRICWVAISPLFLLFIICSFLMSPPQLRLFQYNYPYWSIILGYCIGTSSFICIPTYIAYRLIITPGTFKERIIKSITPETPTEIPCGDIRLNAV
T1 sequence (Q01959 whole entry): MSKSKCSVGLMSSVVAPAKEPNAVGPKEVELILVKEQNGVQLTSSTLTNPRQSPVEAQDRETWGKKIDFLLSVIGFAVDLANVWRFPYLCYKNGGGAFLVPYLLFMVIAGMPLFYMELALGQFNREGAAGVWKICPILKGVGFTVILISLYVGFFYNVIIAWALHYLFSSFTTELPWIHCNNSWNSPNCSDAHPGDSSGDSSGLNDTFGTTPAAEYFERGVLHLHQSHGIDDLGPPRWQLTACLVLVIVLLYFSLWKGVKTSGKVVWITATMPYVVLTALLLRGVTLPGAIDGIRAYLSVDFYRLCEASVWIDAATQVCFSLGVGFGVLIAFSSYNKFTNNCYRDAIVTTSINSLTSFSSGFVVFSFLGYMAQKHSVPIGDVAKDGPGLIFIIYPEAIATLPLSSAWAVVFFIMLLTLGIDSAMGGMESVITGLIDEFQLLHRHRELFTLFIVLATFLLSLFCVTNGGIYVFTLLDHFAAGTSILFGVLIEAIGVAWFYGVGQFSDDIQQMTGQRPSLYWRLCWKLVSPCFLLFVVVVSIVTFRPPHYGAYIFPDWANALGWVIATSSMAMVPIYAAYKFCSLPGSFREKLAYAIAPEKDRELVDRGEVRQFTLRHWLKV

SMILES | IC50 [1, 4] | IC50 [2, 5] | IC50 [3, 6] | also measured
COc1ccccc1[C@@H](c1ccccc1)[S@+]([O-])Cc1cccs1 [Compound 5r, (R,R)-2-((((2-methoxyphenyl)(phenyl)methyl)sulfinyl)methyl)thiophene] | 31 ± 8 µM | > 50 µM | > 50 µM | 
[O-][S@+](Cc1cccs1)[C@@H](c1ccccc1)c1ccc(I)cc1 [Compound 6k, (R,S)-2-((((4-iodophenyl)(phenyl)methyl)sulfinyl)methyl)thiophene] | 1.1 ± 0.3 µM | > 50 µM | 3.8 ± 0.5 µM | 
[O-][S+](Cc1cccs1)C(c1ccccc1)c1ccc(F)cc1 (stereo not drawn) [Compound 7c, 2-((((4-fluorophenyl)(phenyl)methyl)sulfinyl)methyl)thiophene] |  |  |  | IC50 [1, 7]: 2.1 ± 0.6 µM; IC50 [2, 8]: > 50 µM; IC50 [3, 9]: > 50 µM
[O-][S@@+](Cc1cccs1)[C@H](c1ccccc1)c1ccc(Cl)cc1 [Compound 5f, (S,R)-2-((((4-chlorophenyl)(phenyl)methyl)sulfinyl)methyl)thiophene] | 12 ± 1 µM | > 50 µM | > 50 µM | 
[O-][S@@+](Cc1cccs1)[C@H](c1ccccc1)c1cccc(Br)c1 [Compound 5h, (S,R)-2-((((3-bromophenyl)(phenyl)methyl)sulfinyl)methyl)thiophene] | 1.8 ± 0.4 µM |  | > 50 µM | IC50 [2]: > 50 µM
[O-][S@@+](Cc1cccs1)[C@H](c1ccccc1)c1ccccc1F [Compound 8a, (S,R)-2-((((2-fluorophenyl)(phenyl)methyl)sulfinyl)methyl)thiophene] |  |  |  | IC50 [1, 7]: 1.09 ± 0.07 µM; IC50 [2, 8]: > 50 µM; IC50 [3, 9]: > 50 µM
[O-][S@+](Cc1cccs1)[C@H](c1ccccc1)c1ccc(Cl)cc1 [Compound 8f, (R,R)-2-((((4-chlorophenyl)(phenyl)methyl)sulfinyl)methyl)thiophene] | 4.9 ± 0.6 µM | > 50 µM | > 50 µM | 
[O-][S+](Cc1cccs1)C(c1ccccc1)c1ccccc1C(F)(F)F (stereo not drawn) [Compound 5o, 2-(((phenyl(2-(trifluoromethyl)phenyl)methyl)sulfinyl)methyl)thiophene] | > 50 µM | 25 ± 1 µM | > 50 µM | 
[O-][S@+](Cc1cccs1)[C@@H](c1ccccc1)c1ccc(Cl)cc1 [Compound 6f, (R,S)-2-((((4-chlorophenyl)(phenyl)methyl)sulfinyl)methyl)thiophene] | 46 ± 1 µM | > 50 µM | > 50 µM | 
[O-][S@@+](Cc1cccs1)[C@@H](c1ccccc1)c1ccc(Cl)cc1 [Compound 7f, (S,S)-2-((((4-chlorophenyl)(phenyl)methyl)sulfinyl)methyl)thiophene] | 4 ± 1 µM | > 50 µM | > 50 µM | 
[O-][S+](Cc1cccs1)C(c1ccccc1)c1ccc(C(F)(F)F)cc1 (stereo not drawn) [Compound 5q, 2-(((phenyl(4-(trifluoromethyl)phenyl)methyl)sulfinyl)methyl)thiophene] | 17 ± 2 µM | > 50 µM | > 50 µM | 
[O-][S+](Cc1cccs1)C(c1ccccc1)c1cccc(I)c1 (stereo not drawn) [Compound 6j, 2-((((3-iodophenyl)(phenyl)methyl)sulfinyl)methyl)thiophene] | 17.7 ± 2.2 µM |  |  | IC50 [2, 10]: > 50 µM; IC50 [3, 11]: > 50 µM
[O-][S+](Cc1cccs1)C(c1ccccc1)c1ccccc1C(F)(F)F (stereo not drawn) [Compound 7o, 2-(((phenyl(2-(trifluoromethyl)phenyl)methyl)sulfinyl)methyl)thiophene] | > 50 µM | > 50 µM |  | IC50 [3, 11]: > 50 µM
Cc1ccc(C(c2ccccc2)[S+]([O-])Cc2cccs2)cc1 (stereo not drawn) [Compound 5n, 2-(((phenyl(p-tolyl)methyl)sulfinyl)methyl)thiophene] |  | > 50 µM |  | IC50 [1, 7]: 3.97 ± 0.21 µM; IC50 [3, 9]: > 50 µM
[O-][S@+](Cc1cccs1)[C@H](c1ccccc1)c1ccccc1Cl [Compound 5d, (R,R)-2-((((2-chlorophenyl)(phenyl)methyl)sulfinyl)methyl)thiophene] |  |  |  | activity on DAT (reuptake inhibition), in words [1]: did not achieve ≥50% of radioligand displacement; IC50 [1, 7]: > 50 µM; activity on NET (reuptake inhibition), in words [2]: did not achieve ≥50% of radioligand displacement; IC50 [2, 8]: > 50 µM; activity on SERT (reuptake inhibition), in words [3, 12]: did not achieve ≥50% of radioligand displacement; IC50 [3, 9]: > 50 µM
[O-][S+](Cc1cccs1)C(c1ccccc1)c1cccc(C(F)(F)F)c1 (stereo not drawn) [Compound 5p, 2-(((phenyl(3-(trifluoromethyl)phenyl)methyl)sulfinyl)methyl)thiophene] | 5 ± 1 µM | > 50 µM | > 50 µM | 
[O-][S+](Cc1cccs1)C(c1ccccc1)c1ccccc1Br (stereo not drawn) [Compound 5g, 2-((((2-bromophenyl)(phenyl)methyl)sulfinyl)methyl)thiophene] | > 50 µM | > 50 µM | > 50 µM | activity on DAT (reuptake inhibition), in words [1]: no effect; activity on NET (reuptake inhibition), in words [2]: no effect; activity on SERT (reuptake inhibition), in words [3, 12]: no effect
COc1ccc([C@H](c2ccccc2)[S@+]([O-])Cc2cccs2)cc1 [Compound 8t, (R,S)-2-((((4-methoxyphenyl)(phenyl)methyl)sulfinyl)methyl)thiophene] | > 50 µM | > 50 µM | > 50 µM | 
[O-][S+](Cc1cccs1)C(c1ccccc1)c1cccc(C(F)(F)F)c1 (stereo not drawn) [Compound 8p, 2-(((phenyl(3-(trifluoromethyl)phenyl)methyl)sulfinyl)methyl)thiophene] | 6.2 ± 0.6 µM |  | 31 ± 5 µM | IC50 [2, 10]: > 50 µM
[O-][S+](Cc1cccs1)C(c1ccccc1)c1ccc(F)cc1 (stereo not drawn) [Compound 6c, 2-((((4-fluorophenyl)(phenyl)methyl)sulfinyl)methyl)thiophene] |  |  |  | IC50 [1, 7]: 10.1 ± 0.3 µM; IC50 [2, 8]: > 50 µM; IC50 [3, 9]: > 50 µM
COc1ccccc1[C@@H](c1ccccc1)[S@@+]([O-])Cc1cccs1 [Compound 7r, (S,R)-2-((((2-methoxyphenyl)(phenyl)methyl)sulfinyl)methyl)thiophene] | 1.7 ± 0.1 µM | > 50 µM | > 50 µM | 
[O-][S+](Cc1cccs1)C(c1ccc(F)cc1)c1ccc(Cl)cc1 (stereo not drawn) [Compound 8u, 2-((((4-chlorophenyl)(4-fluorophenyl)methyl)sulfinyl)methyl)thiophene] | 5.4 ± 1 µM |  |  | IC50 [2, 10]: > 50 µM; IC50 [3, 11]: > 50 µM
[O-][S+](Cc1cccs1)C(c1ccccc1)c1ccccc1I (stereo not drawn) [Compound 7i, 2-((((2-iodophenyl)(phenyl)methyl)sulfinyl)methyl)thiophene] | 28.4 ± 2.8 µM |  |  | IC50 [2, 10]: > 50 µM; IC50 [3, 11]: > 50 µM
[O-][S@@+](Cc1cccs1)[C@H](c1ccccc1)c1ccccc1Cl [Compound 8d, (S,R)-2-((((2-chlorophenyl)(phenyl)methyl)sulfinyl)methyl)thiophene] |  |  |  | IC50 [1, 7]: 2.55 ± 0.04 µM; IC50 [2, 8]: > 50 µM; IC50 [3, 9]: > 50 µM
[O-][S+](Cc1cccs1)C(c1ccccc1)c1ccccc1C(F)(F)F (stereo not drawn) [Compound 6o, 2-(((phenyl(2-(trifluoromethyl)phenyl)methyl)sulfinyl)methyl)thiophene] | > 50 µM | > 50 µM |  | IC50 [3, 11]: > 50 µM
[O-][S+](Cc1cccs1)C(c1ccccc1)c1cccc(F)c1 (stereo not drawn) [Compound 7b, 2-((((3-fluorophenyl)(phenyl)methyl)sulfinyl)methyl)thiophene] |  |  |  | IC50 [1, 7]: 2.3 ± 0.2 µM; IC50 [2, 8]: > 50 µM; IC50 [3, 9]: > 50 µM
